Values quoted from earlier work in patent publication US6339092B1, “Metalloprotease inhibitors” (Adir et Compagnie, priority 1999, dated 2002).

System: ovarian cancers
Details: Becket el al., DDT 1996; cited from earlier work

CNC(=O)[C@H](Cc1ccccc1)NC(=O)[C@H](CC(C)C)[C@H](CSc1cccs1)C(=O)NO [BB94]
anti-tumour activity in clinical use: active against ovarian cancers
